Measured values as given in ChEMBL document CHEMBL5143576, “Tigliane Diterpenoids with Larvicidal, Antifungal, and α-Glucosidase Inhibitory Activities from Croton damayeshu” (J Nat Prod, 2022).
In brackets after ≈: the same amount, converted by molar mass.

Tests used:
Assay type in all cases: functional
Candida albicans [1] = assay: Antifungal activity against Fluconazole- resistant Candida albicans incubated for 24 hrs by microbroth dilution method
Candida albicans [2] = assay: Antifungal activity against Fluconazole- resistant Candida albicans incubated for 24 hrs in presence of fluconazole by microbroth dilution method
Plutella xylostella = assay: Larvicidal activity against Plutella xylostella assessed as mortality and measured upto 4 days; conditions: 96 h, time <= 4 day
Candida albicans [3] = assay: Antifungal activity against Candida albicans incubated for 24 hrs by microbroth dilution method

Row | SMILES | MIC50 (Candida albicans [1]) | MIC50 (Candida albicans [2]) | LC50 (Plutella xylostella) | MIC50 (Candida albicans [3])
1 | CCCCC/C=C\CCC(=O)O[C@@]12[C@H](OC(=O)[C@@H](C)CC)[C@@H](C)[C@@]3(O)[C@@H](C(=O)C(CO)=C[C@]4(O)C(=O)C(C)=C[C@@H]34)[C@@H]1C2(C)C | 200 mg/L (≈ 325 µM) | 63.4 mg/L | 0.19 µM | 
2 | CC[C@H](C)C(=O)O[C@@]12[C@H](OC(=O)c3ccccc3)[C@@H](C)[C@@]3(O)[C@@H](C=C(CO)C[C@]4(O)C(=O)C(C)=C[C@@H]34)[C@@H]1C2(C)C |  | 5.1 mg/L |  | 
3 | CC/C=C\C/C=C\CCC(=O)O[C@@]12[C@H](OC(=O)[C@@H](C)CC)[C@@H](C)[C@@]3(O)[C@@H](C(=O)C(CO)=C[C@]4(O)C(=O)C(C)=C[C@@H]34)[C@@H]1C2(C)C | 159 mg/L (≈ 260 µM) | 11.9 mg/L | 0.16 µM | 
4 | CC[C@H](C)C(=O)O[C@@H]1[C@@H](C)[C@@]2(O)[C@@H](C(=O)C(CO)=C[C@]3(O)C(=O)C(C)=C[C@@H]23)[C@@H]2C(C)(C)[C@]12OC(=O)[C@@H](C)CC | 15.1 mg/L (≈ 27.6 µM) | 14 mg/L |  | 
5 | C/C=C(\C)C(=O)O[C@@H]1[C@@H](C)[C@@]2(O)[C@@H](C(=O)C(CO)=C[C@]3(O)C(=O)C(C)=C[C@@H]23)[C@@H]2C(C)(C)[C@]12OC(=O)CC/C=C\CCCCC |  |  | 0.26 µM | 
6 | CCCCCCCCCC(=O)O[C@@]12[C@H](OC(=O)[C@@H](C)CC)[C@@H](C)[C@@]3(O)[C@@H](C(=O)C(CO)=C[C@]4(O)C(=O)C(C)=C[C@@H]34)[C@@H]1C2(C)C | 161 mg/L (≈ 261 µM) | 5.18 mg/L |  | 
7 | CCCCCCCC(=O)O[C@@]12[C@H](OC(=O)[C@@H](C)CC)[C@@H](C)[C@@]3(O)[C@@H](C(=O)C(CO)=C[C@]4(O)C(=O)C(C)=C[C@@H]34)[C@@H]1C2(C)C | 114 mg/L (≈ 193 µM) | 50.5 mg/L |  | 
8 | Cc1cc(C(F)(C(F)(F)F)C(F)(F)F)ccc1NC(=O)c1cccc(I)c1C(=O)NC(C)(C)CS(C)(=O)=O [FLUBENDIAMIDE] |  |  | 0.14 µM | 
9 | OC(Cn1cncn1)(Cn1cncn1)c1ccc(F)cc1F [FLUCONAZOLE] |  |  |  | 4.4 mg/L (≈ 14.4 µM)
